Source: US6969697B2, “Substituted benzoylcyclohexenones” (Bayer Aktiengesellschaft, priority 2000, dated 2005)

Legend:
maize [1] = assay: Post-emergence test (Example B), crop plant tolerance, maize; format: in vivo; conditions: rated after three weeks
Experimental: (§1) • Solvent: 5 parts by weight of acetone • Emulsifier: 1 part by weight of alkilaryl polyglycol ether
(§2) To produce a suitable preparation of active compound, 1 part by weight of active compound is mixed with the stated amount of solvent, the stated amount of emulsifier is added and the concentrate is diluted with water to the desired concentration.
(§3) Test plants of a height of 5-15 cm are sprayed with the preparation of active compound such that the particular amounts of active compound desired are applied per unit area. The concentration of the spray liquor is chosen such that the particular amounts of active compound desired are applied in 1000 l of water/ha.
(§4) After three weeks, the degree of damage to the plants is rated in % damage in comparison to the development of the untreated control.
(§5) The figures denote: • 0%=no effect (like untreated control) • 100%=total destruction

weeds [2] = assay: Post-emergence test (Example B), herbicidal activity; format: in vivo; conditions: test plants 5-15 cm sprayed, rated after three weeks
Experimental: as §1, §2, §3, §4, §5

wheat = assay: Post-emergence test (Example B), crop plant tolerance, wheat; format: in vivo; conditions: rated after three weeks
Experimental: as §1, §2, §3, §4, §5

[3] = logP by reversed-phase HPLC (EEC Directive 79/831 Annex V.A8), acidic range; format: physicochemical; conditions: reversed-phase column (C 18), 43° C.; a) acidic range: 0.1% aqueous phosphoric acid, acetonitrile, linear gradient 10% to 90%
Experimental: The logP values given in Table 1 were determined in accordance with EEC Directive 79/831 Annex V.A8 by HPLC (High Performance Liquid Chromatography) using a reversed-phase column (C 18). Temperature: 43° C. • (a) Mobile phases for the determination in the acidic range: 0.1% aqueous phosphoric acid, acetonitrile; linear gradient from 10% acetonitrile to 90% acetonitrile—the corresponding data are labelled ^a) in Table 1. • (b) Mobile phases for the determination in the neutral range: 0.01 molar aqueous phosphate buffer solution, acetonitrile; linear gradient from 10% acetonitrile to 90% acetonitrile—corresponding data are labelled ^b) in Table 1.
Calibration was carried out using unbranched alkan-2-ones (having 3 to 16 carbon atoms), with known logP values (determination of the logP values by the retention times using linear interpolation between two successive alkanones).

maize [4] = assay: Pre-emergence test (Example A), crop plant tolerance; format: in vivo; conditions: rated after three weeks
Experimental: as §1, §2
(§6) Seeds of the test plants are sown in normal soil. After 24 hours, the soil is sprayed with the preparation of active compound such that the particular amount of active compound desired is applied per unit area. The concentration of active compound in the spray liquor is chosen such that the particular amount of active compound desired is applied in 1000 litres of water per hectare.
(§7) After three weeks, the degree of damage to the plants is rated in % damage in comparison to the development of the untreated control. The figures denote: • 0%=no effect (like untreated control) • 100%=total destruction

weeds [5] = assay: Pre-emergence test (Example A), herbicidal activity; format: in vivo; conditions: soil sprayed 24 hours after sowing, rated after three weeks
Experimental: as §1, §2, §6, §7

| logP [3] | Compound | tolerance by crop plants (maize [1]) | activity against weeds (degree of damage) (weeds [2]) | tolerance by crop plants (wheat) | other results |
| --- | --- | --- | --- | --- | --- |
|  | CN1CCCN(Cc2c(Cl)ccc(C(=O)C3=C(Sc4ccccc4)CCCC3=O)c2Cl)C1=O [Example 1, 1-[2,6-dichloro-3-[(6-oxo-2-phenylthio-1-cyclohexen-1-yl)-carbonyl]-benzyl]-3-methyl-tetrahydro-2(1H)-pyrimidinone] | tolerated well | strong activity against weeds | tolerated well | melting point: 140 °C |
| logP = 3.02^a) | CN1CCN(Cc2c(Cl)ccc(C(=O)C3=C(Sc4ccccc4)CCCC3=O)c2Cl)C1=O [Example 2] | tolerated well | strong activity against weeds | tolerated well |  |
| logP = 3.30^a) | CCN1CCN(Cc2c(Cl)ccc(C(=O)C3=C(Sc4ccccc4)CCCC3=O)c2Cl)C1=O [Example 3] |  |  |  |  |
| logP = 3.29^a) | CSc1nn(Cc2c(Cl)ccc(C(=O)C3=C(Sc4ccccc4)CCCC3=O)c2Cl)c(=O)n1C [Example 4] |  |  |  |  |
| logP = 3.50^a) | O=C1CCCC(Sc2ccccc2)=C1C(=O)c1ccc(Cl)c(Cn2nc(C3CC3)n(C3CC3)c2=O)c1Cl [Example 5] | tolerated well | strong activity against weeds | tolerated well |  |
| logP = 2.84^a) | CSc1nn(Cc2c(S(C)(=O)=O)ccc(C(=O)C3=C(Sc4ccccc4)CCCC3=O)c2Cl)c(=O)n1C [Example 6] |  |  |  |  |
| logP = 2.67^a) | COc1nn(Cc2c(S(C)(=O)=O)ccc(C(=O)C3=C(Sc4ccccc4)CCCC3=O)c2Cl)c(=O)n1C [Example 7] |  |  |  |  |
| logP = 2.56^a) | CN1CCN(Cc2c(S(C)(=O)=O)ccc(C(=O)C3=C(Sc4ccccc4)CCCC3=O)c2Cl)C1=O [Example 8] |  |  |  |  |
| logP = 2.79^a) | CCN1CCN(Cc2c(S(C)(=O)=O)ccc(C(=O)C3=C(Sc4ccccc4)CCCC3=O)c2Cl)C1=O [Example 9] |  |  |  |  |
| logP = 3.13^a) | CCOn1c(CC)nn(Cc2c(S(C)(=O)=O)ccc(C(=O)C3=C(Sc4ccccc4)CCCC3=O)c2Cl)c1=O [Example 10] |  |  |  |  |
| logP = 3.06^a) | COc1nn(Cc2c(Cl)ccc(C(=O)C3=C(Sc4ccccc4)CCCC3=O)c2Cl)c(=O)n1C [Example 11] |  |  |  |  |
| logP = 3.69^a) | CC(C)Oc1nn(Cc2c(Cl)ccc(C(=O)C3=C(Sc4ccccc4)CCCC3=O)c2Cl)c(=O)n1C [Example 12] |  |  |  |  |
| logP = 3.10^a) | CN(C)c1nn(Cc2c(Cl)ccc(C(=O)C3=C(Sc4ccccc4)CCCC3=O)c2Cl)c(=O)n1C [Example 13] |  |  |  |  |
| logP = 2.62^a) | COc1nn(Cc2c(Cl)ccc(C(=O)C3=C(S(=O)(=O)c4ccccc4)CCCC3=O)c2Cl)c(=O)n1C [Example 14] |  |  |  |  |
| logP = 3.58^a) | CSc1nn(Cc2cc(C(F)(F)F)ccc2C(=O)C2=C(Sc3ccccc3)CCCC2=O)c(=O)n1C [Example 16] | tolerated well | strong activity against weeds | tolerated well | tolerance by crop plants (maize [4]): tolerated well; activity against weeds (degree of damage) (weeds [5]): strong activity against weeds |
| logP = 2.63^a) | CSC1=C(C(=O)c2ccc(C(F)(F)F)cc2Cn2nc(SC)n(C)c2=O)C(=O)CCC1 [Example 17] | tolerated well | strong activity against weeds | tolerated well |  |
| logP = 3.30^a) | COc1nn(Cc2cc(C(F)(F)F)ccc2C(=O)C2=C(Sc3ccccc3)CCCC2=O)c(=O)n1C [Example 18] | tolerated well | strong activity against weeds | tolerated well |  |
| logP = 2.41^a) | COc1nn(Cc2cc(C(F)(F)F)ccc2C(=O)C2=C(SC)CCCC2=O)c(=O)n1C [Example 19] | tolerated well | strong activity against weeds | tolerated well |  |
| logP = 4.02^a) | CCCCN1CCN(Cc2c(Cl)ccc(C(=O)C3=C(Sc4ccccc4)CCCC3=O)c2Cl)C1=O [Example 120] |  |  |  |  |
| logP = 3.98^a) | CC(C)CN1CCN(Cc2c(Cl)ccc(C(=O)C3=C(Sc4ccccc4)CCCC3=O)c2Cl)C1=O [Example 121] |  |  |  |  |
